Source: US12516104B2, “Compositions and methods for diagnosis and treatment of cancer” (BioNTech SE, priority 2018, dated 2026)
Ends that are not written are not given here.

Experiments:
FN-6789 = target: T1, FN-6789 (Homo sapiens, UniProt P02751); assay: ELISA specificity: binding of Trx-cystine-knot miniproteins to off-target FN-6789 and control proteins; conditions: for off-target and control protein signals: 200 nM Trx-fusion, FN-6789, milk powder, streptavidin, bovine serum albumin
T1 construct: type III domains 6-9 without EDB (FN-6789); made in house; host or cells: E. coli BL21 (DE3), pET-21a
T1 sequence (P02751 32-2386 isoform P02751-1 limits assumed): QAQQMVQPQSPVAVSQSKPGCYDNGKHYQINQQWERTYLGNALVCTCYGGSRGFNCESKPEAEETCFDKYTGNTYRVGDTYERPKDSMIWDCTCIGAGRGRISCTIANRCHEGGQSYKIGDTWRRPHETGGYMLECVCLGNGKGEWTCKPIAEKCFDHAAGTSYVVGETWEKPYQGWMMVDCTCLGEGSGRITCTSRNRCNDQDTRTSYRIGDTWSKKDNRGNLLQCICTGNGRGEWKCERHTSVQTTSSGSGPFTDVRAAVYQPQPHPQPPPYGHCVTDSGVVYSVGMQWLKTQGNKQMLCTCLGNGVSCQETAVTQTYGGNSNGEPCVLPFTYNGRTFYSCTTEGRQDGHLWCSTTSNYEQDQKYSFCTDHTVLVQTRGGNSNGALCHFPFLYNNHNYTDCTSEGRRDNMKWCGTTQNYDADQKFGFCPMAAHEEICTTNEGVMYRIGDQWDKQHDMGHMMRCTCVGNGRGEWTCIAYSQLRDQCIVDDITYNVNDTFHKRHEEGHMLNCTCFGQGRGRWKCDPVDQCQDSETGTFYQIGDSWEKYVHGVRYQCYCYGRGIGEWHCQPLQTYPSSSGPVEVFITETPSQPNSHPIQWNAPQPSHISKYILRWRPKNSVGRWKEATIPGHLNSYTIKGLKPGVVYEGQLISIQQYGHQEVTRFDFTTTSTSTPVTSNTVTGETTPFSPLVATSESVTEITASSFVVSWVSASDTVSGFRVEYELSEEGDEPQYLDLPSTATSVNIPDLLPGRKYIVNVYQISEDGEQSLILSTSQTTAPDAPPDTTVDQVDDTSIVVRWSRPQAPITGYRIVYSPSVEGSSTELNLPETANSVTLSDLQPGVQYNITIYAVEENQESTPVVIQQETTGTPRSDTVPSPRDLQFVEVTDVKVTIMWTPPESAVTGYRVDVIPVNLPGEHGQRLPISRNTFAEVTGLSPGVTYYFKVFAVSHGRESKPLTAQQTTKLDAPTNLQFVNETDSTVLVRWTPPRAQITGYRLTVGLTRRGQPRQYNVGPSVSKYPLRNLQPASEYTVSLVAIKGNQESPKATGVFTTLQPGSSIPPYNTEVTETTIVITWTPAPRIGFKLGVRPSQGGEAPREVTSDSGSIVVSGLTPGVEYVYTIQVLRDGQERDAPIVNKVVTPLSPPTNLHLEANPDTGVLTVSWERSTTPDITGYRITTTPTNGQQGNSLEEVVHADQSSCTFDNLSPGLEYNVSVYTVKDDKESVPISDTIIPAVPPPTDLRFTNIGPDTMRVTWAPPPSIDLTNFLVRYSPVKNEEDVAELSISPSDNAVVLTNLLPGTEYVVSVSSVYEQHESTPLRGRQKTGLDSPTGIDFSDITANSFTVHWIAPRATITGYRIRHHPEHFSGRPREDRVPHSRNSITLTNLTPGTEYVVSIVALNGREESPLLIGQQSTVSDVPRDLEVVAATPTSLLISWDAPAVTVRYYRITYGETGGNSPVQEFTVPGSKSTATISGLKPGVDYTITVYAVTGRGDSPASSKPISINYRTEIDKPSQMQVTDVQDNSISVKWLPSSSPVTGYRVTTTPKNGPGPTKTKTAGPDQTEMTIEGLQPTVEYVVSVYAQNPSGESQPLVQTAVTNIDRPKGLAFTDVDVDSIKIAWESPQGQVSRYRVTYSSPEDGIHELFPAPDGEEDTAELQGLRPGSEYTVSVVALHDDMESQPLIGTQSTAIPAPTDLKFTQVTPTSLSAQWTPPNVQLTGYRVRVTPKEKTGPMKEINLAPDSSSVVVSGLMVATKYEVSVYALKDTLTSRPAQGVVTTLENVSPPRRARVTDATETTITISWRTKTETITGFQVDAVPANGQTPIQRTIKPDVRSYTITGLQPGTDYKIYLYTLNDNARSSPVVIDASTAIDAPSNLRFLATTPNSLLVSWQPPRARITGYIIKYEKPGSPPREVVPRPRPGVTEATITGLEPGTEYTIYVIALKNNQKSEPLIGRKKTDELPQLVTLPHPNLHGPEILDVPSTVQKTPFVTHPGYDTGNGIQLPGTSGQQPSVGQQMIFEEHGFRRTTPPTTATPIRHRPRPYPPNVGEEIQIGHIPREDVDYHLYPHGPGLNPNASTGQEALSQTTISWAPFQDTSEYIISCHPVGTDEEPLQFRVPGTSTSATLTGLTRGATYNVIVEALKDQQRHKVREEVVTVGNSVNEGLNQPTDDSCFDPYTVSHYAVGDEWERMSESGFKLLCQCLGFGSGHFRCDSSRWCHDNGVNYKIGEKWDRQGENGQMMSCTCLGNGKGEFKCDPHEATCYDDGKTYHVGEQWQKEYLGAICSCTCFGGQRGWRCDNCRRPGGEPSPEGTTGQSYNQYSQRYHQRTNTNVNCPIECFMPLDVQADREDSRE
Protocol: FIG. 4: Specificity analysis of Trx-cystine-knot miniprotein clones MCopt 1.0-1/-2/-3 and MCopt 2.0-1/-2/-3. 200 nM of each variant were applied to immobilized FN-B and FN-67B89 target proteins as well as to control proteins FN-6789, milk powder and bovine serum albumin (coated at 1 μg/well). An HRP-conjugated anti-s-tag antibody was used to analyze binding. ELISA was performed in duplicates with Trx-MC-Myc-010 serving as negative control.
FIG. 5: Extended specificity analysis of Trx-cystine-knot miniprotein clones MCopt 1.0-2/-3 and MCopt 2.0-1/-2/3. In total 200 nM of each variant were applied to FN-B, T7-TEV-B, FN-67B89 and FN-B(8-14) target proteins as well as negative controls FN-6789, milk powder, bovine serum albumin, lysozyme, ovalbumin and aldolase (coated at 1 μg/well). ELISA was performed in duplicates, error bars represent standard deviation and Trx-MC-Myc-010 served as negative cystine-knot miniprotein control.
FIG. 6: Saturation-binding curves of MCopt 1.0-2/-3 and MCopt 2.0-1/-2/-3 EDB binding. Trx-cystine-knot miniprotein binding was assayed against FN-B, FN-67B89 and FN-B(8-14) targets as well as against FN-6789 control protein (coated at 1 μg/well) in ten different concentrations. Binding of Trx-cystine-knot miniproteins was detected with an HRP-conjugated anti-s-tag-antibody. ELISAs were performed in duplicates (single values for FN-B(8-14)). A: from top to bottom SEQ ID NOs: 7, 8, and 12; and B: from top to bottom SEQ ID NOs: 11, 8, and 29.
FIG. 9: A: Specificity analysis of Trx-MC-FN-010 to human FN-67B89 and FN-6789 using ELISA. B: Specificity analysis of Trx-MC-FN-016 to human FN-67B89 and FN-6789 using ELISA. Binding of Trx-MC-FN-010 and Trx-MC-FN-016 to FN-67B89 with concentrations ranging from 1.56-50 nM in comparison to FN-6789 was detected with 50 ng of HRP-conjugated anti-S-tag-antibody. ELISA was performed in duplicates using 1 μg coated FN-67B89 or FN-6789 per well.
ELISA was used as technique to analyze protein-protein interactions. Cavities of 96-well microtiter plates (Nunc MaxiSorp™, Thermo Fisher Scientific) were coated with 1 μg FN-B, bovine serum albumin (BSA, Eurobio), milk powder, streptavidin (Sigma Aldrich), T7-His-TEV-B (LD BioPharma), FN-B(8-14) (R&D Systems), lysozyme, ovalbumin (GE Healthcare Life Science), aldolase (GE Healthcare Life Science) or 0.6 μg anti-c-myc-antibody (M4439, Sigma) overnight at 4° C. The wells were washed three times with PBS-T (1×PBS with 0.1% (w/v) Tween-20), blocked with 1× Casein buffer (Sigma Aldrich) diluted in PBS for 2 h at RT and washed again as described. 20 μL of supernatant containing the respective heat-purified fusion protein was added to 80 μL PBS-T or 200 nM of MC-Myc-010 fusion protein (wells with anti-c-myc-antibody) diluted in PBS-T, applied to the cavities and incubated for 1 h at 4° C. After three times of washing with PBS-T, binding of the respective variant was detected with a horseradish peroxidase (HRP)-conjugated anti-S-tag antibody (ab18589 or ab19324, Abcam). Enzymatic reaction was measured with TMB as a chromogenic substrate and stopped with 0.2 M HCl after approximately 5 min. The measurement of absorbance at 450 nm was performed using an Infinite M200 PRO Microplate Reader (Tecan).

normal mouse brain = assay: Immunofluorescence staining of normal mouse brain sections; assay type: binding; conditions: biotinylated miniprotein tetramerized with Cy3-labeled streptavidin
Protocol: FIG. 12: Representative immunofluorescence staining of normal mouse brain with EDB ligand MC-FN-010 and negative control MC-FN-0115. Tissue sections (6 μm) were stained with tetramerized cystine-knot miniprotein-biotin/strepatividin-Cy3 complex and an anti-CD31 antibody to visualize vasculature. Scale bars, 100 μm.
(§1) FIG. 13: Specific binding of MC-FN-010 to tissue sections derived from the human U-87 MG glioblastoma cell line grown as mouse xenograft tumor. Representative immunofluorescence staining of U-87 MG tumor tissues (A) and normal mouse brain (B) with trimeric MC-FN-010 and negative control MC-FN-0115. Tissue sections (6 μm) were stained with Alexa Fluor 680 conjugated trimeric cystine-knot miniproteins and an anti-CD31 antibody detected with a secondary antibody to visualize vasculature. […]
(§2) For immunofluorescence staining cryopreserved tumor or brain pieces were cut in five micron thick sections, fixed in ice cold acetone for 5 min and air-dried. […] Images were captured with a Zeiss Apotome microscope (Carl Zeiss) and analyzed with ZEN software (Carl Zeiss).
(§3) Cryopreserved tumor or brain pieces were cut in six micron thick sections, fixed in l ice cold acetone for 5 min and air-dried. […] CD31 staining of primary anti-mouse CD31 antibody was detected with a secondary anti-rabbit IgG-Cy3 antibody (111-165-003, Jackson ImmunoResearch) diluted 1:400 in PBS with 1% BSA for 30 min at 37° C. […]

U-87 MG tumor tissues = assay: Immunofluorescence staining of U-87 MG xenograft tumor sections; assay type: binding, human; conditions: biotinylated miniprotein tetramerized with Cy3-labeled streptavidin; CD31 co-staining
Protocol: FIG. 8: Specific binding of MC-FN-010 to glioblastoma xenograft tumor sections. Representative results of immunofluorescence staining of U-87 MG tumor tissues with EDB ligand MC-FN-010 and negative control MC-FN-0115. The tissue sections (5 μm) were stained with tetramerized cystine-knot miniprotein-biotin strepatividin-Cy3 complex (red) and with an anti-CD31 antibody to visualize vasculature (green). Scale bars indicate 100 μm.
as §1, with “Representative immunofluorescence staining of U-87 MG tumor tissues (A) and normal mouse brain (B) with trimeric MC-FN-010 and negative control MC-FN-0115.” left out
as §2, §3

FN-67B89 = target: T2, FN-67B89 (Homo sapiens, UniProt P02751); assay: Surface plasmon resonance spectroscopy on immobilized biotinylated FN-67B89; assay type: binding; conditions: for off-rates / binding affinity towards biotinylated FN-67B89: tag-free monomer; for binding affinity towards biotinylated FN-67B89: multi cycle kinetic, 1:1 Langmuir
T2 construct: FN-67B89, amino acid G1080-E1455; made in house; host or cells: E. coli BL21 (DE3), pET-21a
T2 sequence (P02751 1080-1546): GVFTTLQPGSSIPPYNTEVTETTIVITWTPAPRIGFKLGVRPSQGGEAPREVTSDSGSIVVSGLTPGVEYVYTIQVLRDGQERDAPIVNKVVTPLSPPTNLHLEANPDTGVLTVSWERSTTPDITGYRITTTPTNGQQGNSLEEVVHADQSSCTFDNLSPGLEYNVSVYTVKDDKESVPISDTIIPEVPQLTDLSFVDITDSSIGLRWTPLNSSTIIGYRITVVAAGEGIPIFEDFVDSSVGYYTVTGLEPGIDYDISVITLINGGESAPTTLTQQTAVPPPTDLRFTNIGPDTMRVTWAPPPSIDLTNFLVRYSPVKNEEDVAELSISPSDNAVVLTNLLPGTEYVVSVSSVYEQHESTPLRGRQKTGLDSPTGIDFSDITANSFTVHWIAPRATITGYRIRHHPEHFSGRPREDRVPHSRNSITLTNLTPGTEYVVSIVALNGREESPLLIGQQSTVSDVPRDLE
Protocol: FIG. 10: A: Kinetic parameters of MC-FN-010 and MC-FN-016 resulting from surface plasmon resonance analysis. Biotinylated human FN-67B89 was immobilized to streptavidin sensor to perform affinity determination of MC-FN-010 and MC-FN-016 using two-fold serial dilutions starting from 4000 nM. Kinetic parameters were calculated using a 1:1 Langmuir fitting model applied to generated sensorgrams. B: Kinetic parameters of AF680-(MC-FN-010)3 and AF680-(MC-FN-016)3 resulting from surface plasmon resonance with single cycle kinetic analysis. Biotinylated human FN-67B89 was immobilized to streptavidin chip to perform binding determination of AF680-(MC-FN-010)3 and AF680-(MC-FN-016)3 using two-fold serial dilution starting from 10 nM. Kinetic parameters were calculated using a 1:1 Langmuir fitting model applied to generated sensorgrams.
FIG. 15: SPR binding analysis of cystine-knot miniprotein variants to EDB. Kinetic parameters of EDB-specific cystine-knot miniprotein variants as measured by surface plasmon resonance analysis and calculated using a 1:1 Langmuir fitting model. Biotinylated human FN-67B89 was immobilized to a streptavidin sensor to determine affinity of DOTA-(MC-FN-016)3 using two-fold serial dilutions.
Binding kinetics of monomeric and trimeric cystine-knot miniprotein ligands to its target protein was determined using a Biacore T-100 device (GE Healthcare Life Science) with PBS-T as running buffer. For this, the biotinylated FN-67B89 protein (200-300 μg/mL) was captured by binding to a flow cell of a SA sensor chip (GE Healthcare Life Science). To analyze monomeric ligands an immobilized target density of maximum 750 response units (RU) was applied and for trimeric variants a RU of maximum 400 was aimed for. Binding analysis of monomeric ligands was performed using a multi cycle kinetic method with concentrations ranging from 50 to 4000 nM. A cycle started with an association period of 90 sec, followed by a dissociation period of 420 sec and a final regeneration step. Kinetic measurement was conducted applying a flow rate of 20 μL/min. Trimeric variants were analyzed under the same association and dissociation conditions, but using the single cycle kinetic measurement mode in a constant flow of […]. In this case the analyte concentration was between 1.25 nM to 10 nM. Binding kinetics and steady state analysis were calculated using a global kinetic fit model (1:1 Langmuir, Biacore T-100 Evaluation Software, GE Healthcare Life Science).

MCopt 1.0-1: enriched cystine-knot miniprotein clone without the R-I/V-R-(L) motif, SEQ ID NO: 10 (WTCTKKYPNTISCRRDSDCRVTCICRGNGYCG; EDB binding peptide)
off-target and control protein signals (FN-6789): high interaction

PMCTQRANRIAACRRDSDCTGACICRGNGYCG (Control peptide) [MC-FN-0115, reference compound]
fluorescence signal on normal mouse brain section (normal mouse brain): No fluorescence signal
immunofluorescence staining of U-87 MG tumor sections (U-87 MG tumor tissues): no fluorescence signal at all

PMCTQRANRIRLCRRDSDCTGACICRGNGYCG [MC-FN-016]
off-rates (FN-67B89): fast
binding affinity towards biotinylated FN-67B89 (FN-67B89): one digit micromolar range

PMCTQRKNRIRLCRRDSDCTGACICRGNGYCG (cysteine pairing not given here) [MC-FN-010]
fluorescence signal on normal mouse brain section (normal mouse brain): No fluorescence signal
off-target and control protein signals (FN-6789): medium to low
off-rates (FN-67B89): fast
binding affinity towards biotinylated FN-67B89 (FN-67B89): one digit micromolar range
binding towards FN-67B89 target protein (FN-67B89; tag-free proteins, 50-1000 nM, data not shown): strong binding

SVCAHYNTIRVRLCRRDSDCPGACICRGNGYCG (cysteine pairing not given here) [MCopt 2.0-2]
off-target and control protein signals (FN-6789): medium to low

SVCKNVSIMRIRLCRRDSDCPGACICRGNGYCG (cysteine pairing not given here) [MCopt 2.0-1]
off-target and control protein signals (FN-6789): medium to low

SVCKQANFVRIRLCRRDSDCPGACICRGNGYCG (cysteine pairing not given here) [MCopt 2.0-3]
off-target and control protein signals (FN-6789): medium to low
background signals / unspecific binding towards FN-6789 off-target (FN-6789; dose-dependent saturation-binding ELISA, compared with EDB containing target proteins): high degree of unspecific binding

WKCQPTNGYRIRCRRDSDCPGDCICRGNGYCG (cysteine pairing not given here) [MCopt 1.0-2]
off-target and control protein signals (FN-6789): medium to low
